In patent publication US20040265964A1, “Inducers of recombinant protein expression” (priority 2003, published 2004):

Legend:
Type in all cases: cell-based, Chinese hamster
[1] = system: CHO cell line that expresses a soluble form of the IL1-receptor type II; assay: IL1RII expression by CHO cell line in shake flasks
Description: The induction capacity of this compound was then tested in a different format on a different recombinant protein. […] Cells were grown in serum-free medium in shake flasks, hydrocinnamic acid was added to a concentration of 0.5 millimolar, and incubation continued at 31° C. for 9 to 10 days.

[2] = system: fluorescent reporter gene DsRed under the control of an EASE/CMV promoter in CHO cells; assay: DsRed fluorescent reporter induction in CHO cell pools, 96 well format; conditions: for increase in DsRed expression per viable cell relative to control: 96 well, 6 days at 31° C.; for effectiveness as inducers of recombinant polypeptide production: compound screening, conditions not given
Description: FIG. 1 is a graph of the Effect of Combinations of Compounds on Induction of Reporter Gene. Pools of cells that expressed a fluorescent marker protein, DsRed, under the control of an EASE/CMV promoter were cultured in 96 well plates at 35° C. for 6 days in the presence of the indicated amount of compound. The amount of fluorescence is plotted as a function of the concentration of compound. Compounds used for induction were hexanohydroxamic acid (HHA) (diamonds), Hexamethylenebisacetamide (HMBA) (squares) and both HHA+HMBA (triangles).
Using a construct that expressed DsRed under the control of a EASE/CMV promoter, including an adenoviral tripartite leader, as an indicator for expression, various compounds were assayed.
Pools of cells were selected in -GHT medium for presence of the expression vector, and then plated in a 96 well format in serum-free medium. Hydrocinnamic acid was added to test wells at 0.5 millimolar, the temperature decreased from 37° C. to 31° C., and culture continued for 6 days at the reduce temperature. DsRed fluorescence was assayed on a Wallac Victor2 multilabel microplate reader (PerkinElmer Life Sciences, Boston, Mass.).

[3] = system: CHO cell pools transfected with an expression vector encoding an antibody against the IL4 receptor; assay: Antibody expression by unamplified CHO cell pools, 96 well plates; conditions: for increase in antibody expression relative to control, compound used individually: single compound (HHA 10 micromolar, 3-phenylpropionohydroxamic acid 10 micromolar, HMBA 1 millimolar as in the combinations); for increase in antibody expression relative to control, compound used individually / increase in antibody expression relative to control: 4 days at 37° C.; for increase in antibody expression relative to control: 0.5 mM inducer (per example heading), average over experiments
Description: In addition, CHO cell pools transfected with an expression vector encoding an antibody against the IL4 receptor were tested (see U.S. Pat. No. 5,717,072, incorporated by reference herein). Unamplified pools were plated in serum-free medium in 96 well plates and incubated with inducer for 4 days at 37° C.

[4] = system: CHO cell that expresses a soluble form of a TNF receptor, TNFR:Fc; assay: TNFR:Fc expression by CHO cells in shake flasks; conditions: 7 days at a reduced temperature
From the text: Another cell line tested was a CHO cell that expresses a soluble form of a TNF receptor, TNFR:Fc (U.S. Pat. No. 5,605,690, incorporated by reference herein). […]

[5] = system: fluorescent reporter gene DsRed under the control of an EASE/CMV promoter in CHO cells; assay: DsRed fluorescent reporter induction in CHO cell pools, 96 well format; conditions: 6 days at 31° C.
[6] = 0.5 millimolar compound, serum-free medium, 31° C. for 9 to 10 days
[7] = 0.5 mM compound, average over experiments
[8] = 0.5 mM compound, serum-free medium

Compound: Cc1ccc(CCC(=O)O)cc1 [3-(4-methylphenyl)propionic acid]
- increase in IL1RII expression relative to control [1, 6]: 15%
- increase in DsRed expression per viable cell relative to control [2, 7]: 70%

Compound: O=C(CCc1ccccc1)NO [3-phenylpropionohydroxamic acid]
- increase in antibody expression relative to control, compound used individually [3]: not a significant increase

Compound: O=C(O)CCCc1ccccc1 [4-phenylbutyric acid]
- increase in IL1RII expression relative to control [1, 6]: 21%
- increase in DsRed expression per viable cell relative to control [2, 7]: 60%

Compound: O=C(O)CCCCc1ccccc1 [5-phenylvaleric acid]
- increase in IL1RII expression relative to control [1, 6]: 44%
- increase in TNFR:Fc expression relative to control cells [4, 8]: 33%
- increase in antibody expression on day 3 ([3]; 0.5 mM 5-phenylvaleric acid, 37° C., day 3): no increase
- increase in antibody expression relative to control [3]: 40%
- increase in DsRed expression per viable cell relative to control [2, 7]: 40%

Compound: CCCCCC(=O)NO [HHA, hexanohydroxamic acid]
- increase in IL1RII expression relative to control ([1]; 10 micromolar HHA, 31° C. for 9 days): 19%
- increase in DsRed expression relative to the control ([5]; 10 micromolar HHA alone): 48%
- increase in TNFR:Fc expression relative to control cells ([4]; 10 micromolar HHA): 19%
- increase in TNFR:Fc expression relative to control cells ([4]; 20 micromolar HHA): 11%
- increase in antibody expression relative to control, compound used individually [3]: did not have a significant increase

Compound: CC(=O)NCCCCCCNC(C)=O [HMBA, hexamethylene bisacetamide, reference compound]
- increase in DsRed expression relative to the control ([5]; 1 millimolar HMBA alone): 20%
- increase in TNFR:Fc expression relative to control cells ([4]; 1.0 millimolar HMBA alone): 14%
- increase in antibody expression relative to control, compound used individually [3]: not a significant increase

Compound: CCCCNC(C)=O [N-butylacetamide]
- increase in DsRed expression per viable cell relative to control ([2]; 1.0 millimolar compound, average of 2 experiments): 77%

Compound: O=C(O)CCc1ccccc1 [hydrocinnamic acid]
- increase in IL1RII expression relative to control [1, 6]: 22%
- increase in TNFR:Fc expression relative to control cells [4, 8]: 20%
- increase in antibody expression relative to control [3]: 5%
- increase in DsRed expression per viable cell relative to control [2, 7]: 60%

Compound: CC(CC(=O)O)C(=O)O (centres unmarked) [methylsuccinic acid, reference compound]
- effectiveness as inducers of recombinant polypeptide production [2]: ineffective

Compound: O=C(O)CCCCCC(=O)O [pimelic acid, reference compound]
- effectiveness as inducers of recombinant polypeptide production [2]: ineffective

Compound: O=C(O)CC(O)(CC(=O)O)C(=O)[O-].[Na+] [sodium dihydrogen citrate, reference compound]
- effectiveness as inducers of recombinant polypeptide production [2]: ineffective
